{
  "source": "ChEMBL document CHEMBL4804286",
  "about": "“3-amino-4-(4-(4 (dimethylcarbamoyl) phenyl)-1,4-diazepan-1-yl) thieno [2,3-b] pyridine-2-carboxamide for use in cancer therapy and formulations comprising the same” (2020)",
  "design_in_all_cases": "scale not given: the % may be the effect or the level left",
  "key": {"[1]": {"tested_on": "Proto-oncogene tyrosine-protein kinase receptor Ret (Homo sapiens), P07949 [V804L]", "experiment": "Inhibition of human RET V804L mutant assessed as percent of control at 2000 nM by KINOMEscan assay relative to control"}, "[2]": {"target": "Calcium/calmodulin-dependent protein kinase type 1G (Homo sapiens) (UniProt Q96NX5)", "sequence (Q96NX5 whole entry)": "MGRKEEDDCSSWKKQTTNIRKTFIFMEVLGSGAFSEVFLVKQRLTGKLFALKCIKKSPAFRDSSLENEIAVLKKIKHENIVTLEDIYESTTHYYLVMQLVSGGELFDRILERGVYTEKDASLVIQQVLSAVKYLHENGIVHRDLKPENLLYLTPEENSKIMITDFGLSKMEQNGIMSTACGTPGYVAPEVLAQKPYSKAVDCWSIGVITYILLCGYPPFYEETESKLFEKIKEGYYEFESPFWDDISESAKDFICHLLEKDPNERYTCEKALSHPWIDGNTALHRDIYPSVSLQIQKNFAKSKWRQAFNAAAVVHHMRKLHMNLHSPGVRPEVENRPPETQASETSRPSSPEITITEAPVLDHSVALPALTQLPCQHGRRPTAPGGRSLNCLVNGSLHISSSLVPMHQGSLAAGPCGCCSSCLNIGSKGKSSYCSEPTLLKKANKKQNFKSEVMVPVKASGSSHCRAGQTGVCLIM", "experiment": "Inhibition of human CAMK1G assessed as percent of control at 2000 nM by KINOMEscan assay relative to control"}, "[3]": {"target": "High affinity nerve growth factor receptor (Homo sapiens) (UniProt P04629)", "experiment": "Inhibition of human TRKA assessed as percent of control at 2000 nM by KINOMEscan assay relative to control"}, "[4]": {"target": "Mitogen-activated protein kinase kinase kinase 19 (Homo sapiens) (UniProt Q56UN5)", "experiment": "Inhibition of human YSK4 assessed as percent of control at 2000 nM by KINOMEscan assay relative to control"}, "[5]": {"target": "Vascular endothelial growth factor receptor 1 (Homo sapiens) (UniProt P17948)", "experiment": "Inhibition of human FLT1 assessed as percent of control at 2000 nM by KINOMEscan assay relative to control"}, "[6]": {"target": "Ankyrin repeat and protein kinase domain-containing protein 1 (Homo sapiens) (UniProt Q8NFD2)", "experiment": "Inhibition of human ANKK1 assessed as percent of control at 2000 nM by KINOMEscan assay relative to control"}, "[7]": {"target": "Serine/threonine-protein kinase Nek5 (Homo sapiens) (UniProt Q6P3R8)", "experiment": "Inhibition of human NEK5 assessed as percent of control at 2000 nM by KINOMEscan assay relative to control"}, "[8]": {"target": "Serine/threonine-protein kinase LATS2 (Homo sapiens) (UniProt Q9NRM7)", "sequence (Q9NRM7 whole entry)": "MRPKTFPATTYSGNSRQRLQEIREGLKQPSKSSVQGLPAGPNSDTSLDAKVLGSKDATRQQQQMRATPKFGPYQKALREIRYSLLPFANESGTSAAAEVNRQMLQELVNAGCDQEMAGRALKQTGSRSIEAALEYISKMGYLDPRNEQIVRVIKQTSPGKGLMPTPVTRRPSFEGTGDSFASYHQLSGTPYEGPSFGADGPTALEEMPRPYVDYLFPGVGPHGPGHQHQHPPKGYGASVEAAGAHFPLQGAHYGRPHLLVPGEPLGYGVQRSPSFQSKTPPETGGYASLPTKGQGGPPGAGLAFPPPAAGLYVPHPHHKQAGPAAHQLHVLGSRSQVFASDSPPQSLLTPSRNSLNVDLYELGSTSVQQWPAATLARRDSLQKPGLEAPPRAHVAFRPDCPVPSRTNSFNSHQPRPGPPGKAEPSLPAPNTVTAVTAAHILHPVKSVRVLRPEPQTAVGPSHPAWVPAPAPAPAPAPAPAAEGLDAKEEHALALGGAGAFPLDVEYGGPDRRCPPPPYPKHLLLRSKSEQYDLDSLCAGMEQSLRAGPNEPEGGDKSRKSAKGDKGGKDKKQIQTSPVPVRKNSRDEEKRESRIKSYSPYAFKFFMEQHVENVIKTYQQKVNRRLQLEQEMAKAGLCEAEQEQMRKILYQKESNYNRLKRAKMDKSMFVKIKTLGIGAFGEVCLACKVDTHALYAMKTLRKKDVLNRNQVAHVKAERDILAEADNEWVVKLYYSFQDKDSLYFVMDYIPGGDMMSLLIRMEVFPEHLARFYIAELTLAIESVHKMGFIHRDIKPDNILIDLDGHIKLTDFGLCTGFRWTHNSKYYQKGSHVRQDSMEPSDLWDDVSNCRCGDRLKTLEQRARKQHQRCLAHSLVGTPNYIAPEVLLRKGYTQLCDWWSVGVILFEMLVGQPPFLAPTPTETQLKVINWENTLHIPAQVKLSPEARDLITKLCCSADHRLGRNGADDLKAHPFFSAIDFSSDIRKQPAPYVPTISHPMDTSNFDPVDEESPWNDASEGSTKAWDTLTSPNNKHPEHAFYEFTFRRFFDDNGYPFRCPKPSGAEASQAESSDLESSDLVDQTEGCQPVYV", "experiment": "Inhibition of human LATS2 assessed as percent of control at 2000 nM by KINOMEscan assay relative to control"}, "[9]": {"target": "Mitogen-activated protein kinase kinase kinase 2 (Homo sapiens) (UniProt Q9Y2U5)", "experiment": "Inhibition of human MAP3K2 assessed as percent of control at 2000 nM by KINOMEscan assay relative to control"}, "[10]": {"tested_on": "Tyrosine-protein kinase ABL1 (Homo sapiens), P00519 [Q252H]", "experiment": "Inhibition of non-phosphorylated human ABL1 Q252H mutant assessed as percent of control at 2000 nM by KINOMEscan assay relative to control"}, "[11]": {"tested_on": "Tyrosine-protein kinase ABL1 (Homo sapiens), P00519 [T315I]", "experiment": "Inhibition of phosphorylated human ABL1 T315I mutant assessed as percent of control at 2000 nM by KINOMEscan assay relative to control"}, "[12]": {"target": "Serine/threonine-protein kinase D3 (Homo sapiens) (UniProt O94806)", "experiment": "Inhibition of human PRKD3 assessed as percent of control at 2000 nM by KINOMEscan assay relative to control"}, "[13]": {"target": "Mitogen-activated protein kinase kinase kinase 4 (Homo sapiens) (UniProt Q9Y6R4)", "experiment": "Inhibition of human MAP3K4 assessed as percent of control at 2000 nM by KINOMEscan assay relative to control"}, "[14]": {"target": "BMP-2-inducible protein kinase (Homo sapiens) (UniProt Q9NSY1)", "experiment": "Inhibition of human BIKE assessed as percent of control at 2000 nM by KINOMEscan assay relative to control"}, "[15]": {"target": "TGF-beta receptor type-1 (Homo sapiens) (UniProt P36897)", "experiment": "Inhibition of human TGFBR1 assessed as percent of control at 2000 nM by KINOMEscan assay relative to control"}, "[16]": {"target": "Ephrin type-A receptor 2 (Homo sapiens) (UniProt P29317)", "sequence (P29317 whole entry)": "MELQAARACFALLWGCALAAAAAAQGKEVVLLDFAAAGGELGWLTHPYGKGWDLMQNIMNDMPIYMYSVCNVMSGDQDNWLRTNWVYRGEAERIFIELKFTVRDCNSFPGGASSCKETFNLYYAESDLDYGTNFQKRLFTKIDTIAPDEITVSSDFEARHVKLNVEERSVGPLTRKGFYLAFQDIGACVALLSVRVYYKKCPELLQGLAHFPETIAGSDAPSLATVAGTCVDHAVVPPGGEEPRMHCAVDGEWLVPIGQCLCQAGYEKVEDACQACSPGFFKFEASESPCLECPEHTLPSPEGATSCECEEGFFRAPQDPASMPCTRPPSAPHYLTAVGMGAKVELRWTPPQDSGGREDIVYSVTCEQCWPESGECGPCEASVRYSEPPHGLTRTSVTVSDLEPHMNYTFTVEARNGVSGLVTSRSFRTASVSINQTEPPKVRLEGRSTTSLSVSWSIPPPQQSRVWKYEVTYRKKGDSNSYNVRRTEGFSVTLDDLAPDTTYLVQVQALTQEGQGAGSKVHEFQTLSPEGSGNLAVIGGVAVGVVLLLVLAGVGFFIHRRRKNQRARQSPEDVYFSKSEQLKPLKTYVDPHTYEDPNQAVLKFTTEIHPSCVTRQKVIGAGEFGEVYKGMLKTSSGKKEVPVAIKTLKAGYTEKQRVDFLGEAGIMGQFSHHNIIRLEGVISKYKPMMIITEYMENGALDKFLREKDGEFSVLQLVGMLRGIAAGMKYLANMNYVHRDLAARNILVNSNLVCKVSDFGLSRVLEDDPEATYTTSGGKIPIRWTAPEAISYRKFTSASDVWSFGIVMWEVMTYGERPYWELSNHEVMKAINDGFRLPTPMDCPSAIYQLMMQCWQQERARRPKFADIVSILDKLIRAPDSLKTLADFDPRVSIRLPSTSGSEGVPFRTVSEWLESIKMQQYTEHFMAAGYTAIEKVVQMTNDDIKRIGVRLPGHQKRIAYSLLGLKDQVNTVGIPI", "experiment": "Inhibition of human EPHA2 assessed as percent of control at 2000 nM by KINOMEscan assay relative to control"}, "[17]": {"target": "Mitogen-activated protein kinase kinase kinase 6 (Homo sapiens) (UniProt O95382)", "experiment": "Inhibition of human ASK2 assessed as percent of control at 2000 nM by KINOMEscan assay relative to control"}, "[18]": {"target": "Casein kinase I isoform gamma-1 (Homo sapiens) (UniProt Q9HCP0)", "experiment": "Inhibition of human CSNK1G1 assessed as percent of control at 2000 nM by KINOMEscan assay relative to control"}, "[19]": {"target": "Mitotic checkpoint serine/threonine-protein kinase BUB1 (Homo sapiens) (UniProt O43683)", "experiment": "Inhibition of human BUB1 assessed as percent of control at 2000 nM by KINOMEscan assay relative to control"}, "[20]": {"target": "Tyrosine-protein kinase Yes (Homo sapiens) (UniProt P07947)", "sequence (P07947 2-543 limits assumed)": "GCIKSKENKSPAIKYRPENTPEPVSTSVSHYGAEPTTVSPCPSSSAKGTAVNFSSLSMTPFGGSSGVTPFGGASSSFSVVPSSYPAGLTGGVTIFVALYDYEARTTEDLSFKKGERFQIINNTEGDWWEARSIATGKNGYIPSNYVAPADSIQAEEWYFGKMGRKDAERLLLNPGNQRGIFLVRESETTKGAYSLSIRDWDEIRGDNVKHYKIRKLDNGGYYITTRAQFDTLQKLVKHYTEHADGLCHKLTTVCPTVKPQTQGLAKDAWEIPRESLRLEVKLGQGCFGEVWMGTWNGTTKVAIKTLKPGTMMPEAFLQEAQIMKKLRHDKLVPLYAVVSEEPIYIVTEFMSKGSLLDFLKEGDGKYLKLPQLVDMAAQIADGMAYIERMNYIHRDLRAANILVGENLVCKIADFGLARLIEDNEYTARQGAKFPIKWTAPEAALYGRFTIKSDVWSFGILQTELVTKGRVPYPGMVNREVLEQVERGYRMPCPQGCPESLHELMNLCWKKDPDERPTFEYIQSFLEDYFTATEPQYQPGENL", "experiment": "Inhibition of human YES assessed as percent of control at 2000 nM by KINOMEscan assay relative to control"}, "[21]": {"target": "Microtubule-associated serine/threonine-protein kinase 1 (Homo sapiens) (UniProt Q9Y2H9)", "experiment": "Inhibition of human MAST1 assessed as percent of control at 2000 nM by KINOMEscan assay relative to control"}, "[22]": {"target": "Phosphatidylinositol 4-phosphate 3-kinase C2 domain-containing subunit beta (Homo sapiens) (UniProt O00750)", "experiment": "Inhibition of human PIK3C2B assessed as percent of control at 2000 nM by KINOMEscan assay relative to control"}, "[23]": {"target": "Cyclin-dependent kinase-like 2 (Homo sapiens) (UniProt Q92772)", "experiment": "Inhibition of human CDKL2 assessed as percent of control at 2000 nM by KINOMEscan assay relative to control"}, "[24]": {"tested_on": "Mast/stem cell growth factor receptor Kit (Homo sapiens), P10721 [D816V]", "experiment": "Inhibition of human KIT D816V mutant assessed as percent of control at 2000 nM by KINOMEscan assay relative to control"}, "[25]": {"target": "RAF proto-oncogene serine/threonine-protein kinase (Homo sapiens) (UniProt P04049)", "sequence (P04049 whole entry)": "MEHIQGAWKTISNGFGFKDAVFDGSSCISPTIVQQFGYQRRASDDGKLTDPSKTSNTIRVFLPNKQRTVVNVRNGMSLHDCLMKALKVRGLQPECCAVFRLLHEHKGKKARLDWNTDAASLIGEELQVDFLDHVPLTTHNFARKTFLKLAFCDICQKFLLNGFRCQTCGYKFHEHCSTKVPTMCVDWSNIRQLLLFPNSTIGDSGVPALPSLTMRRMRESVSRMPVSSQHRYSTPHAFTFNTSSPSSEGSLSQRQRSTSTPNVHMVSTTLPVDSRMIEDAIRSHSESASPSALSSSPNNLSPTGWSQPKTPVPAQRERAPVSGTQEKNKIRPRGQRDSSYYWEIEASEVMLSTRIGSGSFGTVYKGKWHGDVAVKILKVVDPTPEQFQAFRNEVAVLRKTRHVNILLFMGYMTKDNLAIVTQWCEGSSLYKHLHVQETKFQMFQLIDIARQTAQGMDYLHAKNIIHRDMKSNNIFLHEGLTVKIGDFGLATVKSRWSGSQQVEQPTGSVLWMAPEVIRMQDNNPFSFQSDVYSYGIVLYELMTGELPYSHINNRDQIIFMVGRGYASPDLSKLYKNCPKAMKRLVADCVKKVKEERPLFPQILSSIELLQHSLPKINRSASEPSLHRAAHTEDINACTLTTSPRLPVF", "experiment": "Inhibition of human RAF1 assessed as percent of control at 2000 nM by KINOMEscan assay relative to control"}, "[26]": {"tested_on": "Hepatocyte growth factor receptor (Homo sapiens), P08581 [M1250T]", "experiment": "Inhibition of human MET M1250T mutant assessed as percent of control at 2000 nM by KINOMEscan assay relative to control"}, "[27]": {"target": "Rhodopsin kinase GRK7 (Homo sapiens) (UniProt Q8WTQ7)", "sequence (Q8WTQ7 whole entry)": "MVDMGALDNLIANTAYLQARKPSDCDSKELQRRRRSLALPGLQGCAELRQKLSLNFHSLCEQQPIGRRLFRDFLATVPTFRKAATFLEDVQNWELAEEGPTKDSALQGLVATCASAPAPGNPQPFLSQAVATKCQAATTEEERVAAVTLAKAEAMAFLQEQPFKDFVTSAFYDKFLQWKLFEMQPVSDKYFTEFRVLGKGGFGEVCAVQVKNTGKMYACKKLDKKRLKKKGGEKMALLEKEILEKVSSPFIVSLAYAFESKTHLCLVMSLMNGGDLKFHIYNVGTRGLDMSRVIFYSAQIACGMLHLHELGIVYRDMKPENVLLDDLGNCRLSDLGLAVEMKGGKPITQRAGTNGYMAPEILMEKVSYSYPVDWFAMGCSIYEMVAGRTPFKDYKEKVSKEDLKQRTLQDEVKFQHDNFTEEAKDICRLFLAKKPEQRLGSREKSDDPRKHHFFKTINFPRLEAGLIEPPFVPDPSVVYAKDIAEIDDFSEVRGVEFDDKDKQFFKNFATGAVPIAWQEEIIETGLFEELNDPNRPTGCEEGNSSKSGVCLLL", "experiment": "Inhibition of human GRK7 assessed as percent of control at 2000 nM by KINOMEscan assay relative to control"}, "[28]": {"target": "G protein-coupled receptor kinase 3 (Homo sapiens) (UniProt P35626)", "experiment": "Inhibition of human GRK3 assessed as percent of control at 2000 nM by KINOMEscan assay relative to control"}, "[29]": {"tested_on": "Hepatocyte growth factor receptor (Homo sapiens), P08581 [Y1235D]", "experiment": "Inhibition of human MET Y1235D mutant assessed as percent of control at 2000 nM by KINOMEscan assay relative to control"}, "[30]": {"target": "cGMP-dependent protein kinase 2 (Homo sapiens) (UniProt Q13237)", "experiment": "Inhibition of human PRKG2 assessed as percent of control at 2000 nM by KINOMEscan assay relative to control"}, "[31]": {"target": "Receptor-interacting serine/threonine-protein kinase 2 (Homo sapiens) (UniProt O43353)", "sequence (O43353 whole entry)": "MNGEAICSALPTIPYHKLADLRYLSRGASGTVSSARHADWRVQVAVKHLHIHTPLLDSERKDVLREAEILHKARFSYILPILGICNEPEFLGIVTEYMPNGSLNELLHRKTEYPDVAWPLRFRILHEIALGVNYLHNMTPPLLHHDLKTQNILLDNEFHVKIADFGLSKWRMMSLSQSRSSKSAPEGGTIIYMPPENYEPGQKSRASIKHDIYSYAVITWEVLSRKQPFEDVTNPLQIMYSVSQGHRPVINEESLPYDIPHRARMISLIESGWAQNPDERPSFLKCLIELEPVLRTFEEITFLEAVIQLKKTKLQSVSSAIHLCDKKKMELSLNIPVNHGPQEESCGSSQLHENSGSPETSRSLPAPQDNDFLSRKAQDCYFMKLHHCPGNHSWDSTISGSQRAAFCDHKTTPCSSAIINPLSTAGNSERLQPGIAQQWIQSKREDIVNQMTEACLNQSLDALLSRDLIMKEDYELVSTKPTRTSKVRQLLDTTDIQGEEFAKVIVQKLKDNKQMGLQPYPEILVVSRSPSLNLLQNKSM", "experiment": "Inhibition of human RIPK2 assessed as percent of control at 2000 nM by KINOMEscan assay relative to control"}},
  "note": "Values joined by “and” are separate entries in the source; they are usually repeats but may differ in a detail not shown here. Equal values may be shown once.",
  "data": [
    {"smiles": "CN(C)C(=O)c1ccc(N2CCCN(c3ccnc4sc(C(N)=O)c(N)c34)CC2)cc1", "values": [
      {"measurement": "Activity", "setting": "[1]", "result": 100, "unit": "%"},
      {"measurement": "Activity", "setting": "[2]", "result": 99, "unit": "%"},
      {"measurement": "Activity", "setting": "[3]", "result": "93% and 78%"},
      {"measurement": "Activity", "setting": "[4]", "result": "74% and 53%"},
      {"measurement": "Activity", "setting": "[5]", "result": 100, "unit": "%"},
      {"measurement": "Activity", "setting": "[6]", "result": "100% and 91%"},
      {"measurement": "Activity", "setting": "[7]", "result": "94% and 100%"},
      {"measurement": "Activity", "setting": "[8]", "result": 94, "unit": "%"},
      {"measurement": "Activity", "setting": "[8]; INHIBITOR", "result": 31, "unit": "%"},
      {"measurement": "Activity", "setting": "[9]", "result": "98% and 86%"},
      {"measurement": "Activity", "setting": "[10]", "result": "94% and 75%"},
      {"measurement": "Activity", "setting": "[11]", "result": "100% and 85%"},
      {"measurement": "Activity", "setting": "[12]", "result": "94% and 100%"},
      {"measurement": "Activity", "setting": "[13]", "result": "90% and 100%"},
      {"measurement": "Activity", "setting": "[14]", "result": "100% and 96%"},
      {"measurement": "Activity", "setting": "[15]", "result": 100, "unit": "%"},
      {"measurement": "Activity", "setting": "[16]", "result": "95% and 100%"},
      {"measurement": "Activity", "setting": "[17]", "result": "90% and 88%"},
      {"measurement": "Activity", "setting": "[18]", "result": "90% and 80%"},
      {"measurement": "Activity", "setting": "[19]", "result": "88% and 80%"},
      {"measurement": "Activity", "setting": "[20]", "result": "99% and 100%"},
      {"measurement": "Activity", "setting": "[21]", "result": 92, "unit": "%"},
      {"measurement": "Activity", "setting": "[22]", "result": "89% and 87%"},
      {"measurement": "Activity", "setting": "[23]", "result": "86% and 96%"},
      {"measurement": "Activity", "setting": "[24]", "result": "93% and 79%"},
      {"measurement": "Activity", "setting": "[25]", "result": "97% and 100%"},
      {"measurement": "Activity", "setting": "[26]", "result": "100% and 96%"},
      {"measurement": "Activity", "setting": "[27]", "result": "100% and 92%"},
      {"measurement": "Activity", "setting": "[28]", "result": "99% and 87%"},
      {"measurement": "Activity", "setting": "[29]", "result": 100, "unit": "%"},
      {"measurement": "Activity", "setting": "[30]", "result": "98% and 90%"},
      {"measurement": "Activity", "setting": "[31]", "result": "100% and 93%"}
    ]}
  ]
}
